# In US20240360146A1, “BRUTON'S TYROSINE KINASE AND MUTANT DEGRADER, COMPOSITION AND APPLICATION THEREOF” (HANGZHOU HEALZEN THERAPEUTICS CO., LTD., priority 2021, published 2024):
# Molecular target: T1, BTK (Homo sapiens, UniProt Q06187)
# T1 construct: endogenous in cells; host or cells: Mino cells
# Assay: BTK degradation activity test in Mino cells
# Format: cell-based
# Details: 16 h incubation, Western blot or Elisa
# Outline: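 Mino cells treated with a concentration series of compound for 16 h, then lysed; total protein by BCA. BTK quantified by Western blot or ELISA, degradation rate calculated against blank control, and DC50 fitted from the degradation curve.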
# T1 sequence (Q06187 whole entry): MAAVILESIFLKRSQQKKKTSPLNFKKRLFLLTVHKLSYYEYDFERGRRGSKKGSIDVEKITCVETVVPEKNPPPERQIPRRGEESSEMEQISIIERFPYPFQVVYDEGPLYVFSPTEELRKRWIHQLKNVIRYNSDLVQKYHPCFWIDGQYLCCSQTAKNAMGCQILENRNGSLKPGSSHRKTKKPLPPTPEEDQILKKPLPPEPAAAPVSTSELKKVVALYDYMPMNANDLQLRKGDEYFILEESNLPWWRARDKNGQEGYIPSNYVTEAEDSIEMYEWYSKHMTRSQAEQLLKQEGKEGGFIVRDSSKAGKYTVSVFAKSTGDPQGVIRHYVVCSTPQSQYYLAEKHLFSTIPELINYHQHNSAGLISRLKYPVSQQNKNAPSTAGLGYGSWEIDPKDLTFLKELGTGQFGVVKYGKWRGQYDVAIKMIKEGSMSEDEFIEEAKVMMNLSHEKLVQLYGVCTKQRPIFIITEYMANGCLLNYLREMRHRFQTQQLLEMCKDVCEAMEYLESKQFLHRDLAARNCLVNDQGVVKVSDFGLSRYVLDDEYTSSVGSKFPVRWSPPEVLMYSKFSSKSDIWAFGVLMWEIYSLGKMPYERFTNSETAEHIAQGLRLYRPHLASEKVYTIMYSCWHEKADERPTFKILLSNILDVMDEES
row,Structure (SMILES),DC50
1,"CC1(c2ccc(Nc3nc(N4CCCC(N5CCN(c6ccccc6)C5=O)C4)nnc3C(N)=O)cc2)CCN(C2CCN(c3ccc4c(c3)C(=O)N(C3CCC(=O)NC3=O)C4=O)CC2)CC1 (stereo not shown) [Compound 091, 5-((4-(1′-(2-(2,6-dioxopiperidin-3-yl)-1,3-dioxoisoindol-5-yl)-4-methyl-[1,4′-bipiperidin]-4-yl)phenyl)amino)-3-(3-(2-oxo-3-phenylimidazolin-1-yl)piperidin-1-yl)-1,2,4-triazin-6-carboxamide]",> 1 nM
2,"CC1(c2ccc(Nc3nc(N4CCCC(N5CCN(c6ccccc6)C5=O)C4)nnc3C(N)=O)cc2)CCN(C2CN(c3ccc4c(c3)C(=O)N(C3CCC(=O)NC3=O)C4=O)C2)CC1 (stereo not shown) [Compound 092, 5-((4-(1-(1-(2-(2,6-dioxopiperidin-3-yl)-1,3-dioxoisoindol-5-yl)azetidine-3-yl)-4-methylpiperidin-4-yl)phenyl)amino)-3-(3-(2-oxo-3-phenylimidazolin-1-yl)piperidin-1-yl)-1,2,4-triazin-6-carboxamide]",> 1 nM
3,NC(=O)c1nnc(N2CCCC(N3CCN(c4ccccc4)C3=O)C2)nc1Nc1ccc2c(c1)CCN(C1CN(c3ccc4c(c3)C(=O)N(C3CCC(=O)NC3=O)C4=O)C1)C2 (stereo not shown) [Compound 093],> 1 nM
4,"NC(=O)c1nnc(N2CCCC(N3CCN(c4ccccc4)C3=O)C2)nc1Nc1ccc(C2CCN(C3CCN(c4ccc5c(c4)C(=O)N(C4CCC(=O)NC4=O)C5=O)CC3)CC2)cc1 (stereo not shown) [Compound 096, 5-((4-(1′-(2-(2,6-dioxopiperidin-3-yl)-1,3-dioxoisoindol-5-yl)-[1,4′-bipiperidin]-4-yl)phenyl)amino)-3-(3-(2-oxo-3-phenylimidazolin-1-yl)piperidin-1-yl)-1,2,4-triazin-6-carboxamide]",< 1 nM
5,NC(=O)c1nnc(N2CCCC(N3CCN(c4ccccc4)C3=O)C2)nc1Nc1ccc(N2CCC(N3CCN(CC#Cc4ccc5c(c4)CN(C4CCC(=O)NC4=O)C5=O)CC3)CC2)cc1 (stereo not shown) [Compound 097],> 1 nM
6,"NC(=O)c1nnc(N2CCCC(N3CCN(c4ccccc4)C3=O)C2)nc1Nc1ccc(C2CCN(CC3CCN(c4cc5c(cc4F)C(=O)N(C4CCC(=O)NC4=O)C5=O)CC3)CC2)cc1 (stereo not shown) [Compound 098, 5-((4-(1-((1-(2-(2,6-dioxopiperidin-3-yl)-6-fluoro-1,3-dioxoisoindol-5-yl)piperidin-4-yl)methyl)piperidin-4-yl)phenyl)amino)-3-(3-(2-oxo-3-phenylimidazolin-1-yl)piperidin-1-yl)-1,2,4-triazin-6-carboxamide]",< 1 nM
7,"NC(=O)c1nnc(N2CCCC(N3CCN(c4ccccc4)C3=O)C2)nc1Nc1ccc(C2CCN(CC3CCN(c4ccc5c(c4)C(=O)N(C4CCC(=O)NC4=O)C5)CC3)CC2)cc1 (stereo not shown) [Compound 099, 5-((4-(1-((1-(2-(2,6-dioxopiperidin-3-yl)-3-oxoisoindol-5-yl)piperidin-4-yl)methyl)piperidin-4-yl)phenyl)amino)-3-(3-(2-oxo-3-phenylimidazolin-1-yl)piperidin-1-yl)-1,2,4-triazin-6-carboxamide]",< 1 nM
8,"NC(=O)c1nnc(N2CCCC(N3CCN(c4ccccc4)C3=O)C2)nc1Nc1ccc(C2CCN(CC3CCN(c4ccc5c(c4)CN(C4CCC(=O)NC4=O)C5=O)CC3)CC2)cc1 (stereo not shown) [Compound 100, 5-((4-(1-((1-(2-(2,6-dioxopiperidin-3-yl)-1-oxoisoindol-5-yl)piperidin-4-yl)methyl)piperidin-4-yl)phenyl)amino)-3-(3-(2-oxo-3-phenylimidazolin-1-yl)piperidin-1-yl)-1,2,4-triazin-6-carboxamide]",< 1 nM
9,Cn1c(=O)n(C2CCC(=O)NC2=O)c2ccc(N3CCC(CN4CCC(c5ccc(Nc6nc(N7CCCC(N8CCN(c9ccccc9)C8=O)C7)nnc6C(N)=O)cc5)CC4)CC3)cc21 (stereo not shown) [Compound 101],< 1 nM
10,"CN1CCN(C2CC3CC2N(c2nnc(C(N)=O)c(Nc4ccc(C5CCN(CC6CCN(c7ccc8c(c7)C(=O)N(C7CCC(=O)NC7=O)C8=O)C6)CC5)cc4)n2)C3)C1=O (stereo not shown) [Compound 102, 5-((4-(1-((1-(2-(2,6-dioxopiperidin-3-yl)-1,3-dioxoisoindol-5-yl)pyrrolidin-3-yl)methyl)piperidin-4-yl)phenyl)amino)-3-(6-(3-methyl-2-oxoimidazolin-1-yl)-2-azabicyclo[2.2.1]heptan-2-yl)-1,2,4-triazin-6-carboxamide]",< 1 nM
11,"CN1CCN(C2CC3CC2N(c2nnc(C(N)=O)c(Nc4ccc(C5CCN(C6CN(c7ccc8c(c7)C(=O)N(C7CCC(=O)NC7=O)C8=O)C6)CC5)cc4)n2)C3)C1=O (stereo not shown) [Compound 103, 5-((4-(1-(1-(2-(2,6-dioxopiperidin-3-yl)-1,3-dioxoisoindol-5-yl)azetidin-3-yl)piperidin-4-yl)phenyl)amino)-3-(6-(3-methyl-2-oxoimidazolin-1-yl)-2-azabicyclo[2.2.1]heptan-2-yl)-1,2,4-triazin-6-carboxamide]",< 1 nM
12,"CN1CCN(C2CC3CC2N(c2nnc(C(N)=O)c(Nc4ccc(C5(C)CCN(C6CCN(c7ccc8c(c7)C(=O)N(C7CCC(=O)NC7=O)C8=O)CC6)CC5)cc4)n2)C3)C1=O (stereo not shown) [Compound 104, 5-((4-(1′-(2-(2,6-dioxopiperidin-3-yl)-1,3-dioxoisoindol-5-yl)-4-methyl-[1,4′-bipiperidin]-4-yl)phenyl)amino)-3-(6-(3-methyl-2-oxoimidazolin-1-yl)-2-azabicyclo[2.2.1]heptan-2-yl)-1,2,4-triazin-6-carboxamide]",< 1 nM

# Now from value to compound:
row,DC50,Structure (SMILES)
1,< 1 nM,"CN1CCN(C2CCCN(c3nnc(C(N)=O)c(Nc4ccc(C5CCN(C6CCN(c7ccc8c(c7)C(=O)N(C7CCC(=O)NC7=O)C8=O)CC6)CC5)cc4)n3)C2)C1=O (stereo not shown) [Compound 083, 5-((4-(1′-(2-(2,6-dioxopiperidin-3-yl)-1,3-dioxoisoindol-5-yl)-[1,4′-bipiperidin]-4-yl)phenyl)amino)-3-(3-(3-methyl-2-oxoimidazolin-1-yl)piperidin-1-yl)-1,2,4-triazin-6-carboxamide]"
2,< 1 nM,CN1CCN(C2CCCN(c3nnc(C(N)=O)c(Nc4ccc(N5CCC(N6CCN(CC#Cc7ccc8c(c7)CN(C7CCC(=O)NC7=O)C8=O)CC6)CC5)cc4)n3)C2)C1=O (stereo not shown) [Compound 084]
3,< 1 nM,"CN1CCN(C2CCCN(c3nnc(C(N)=O)c(Nc4ccc(C5CCN(CC6CCN(c7cc8c(cc7F)C(=O)N(C7CCC(=O)NC7=O)C8=O)CC6)CC5)cc4)n3)C2)C1=O (stereo not shown) [Compound 085, 5-((4-(1-((1-(2-(2,6-dioxopiperidin-3-yl)-6-fluoro-1,3-dioxoisoindol-5-yl)piperidin-4-yl)methyl)piperidin-4-yl)phenyl)amino)-3-(3-(3-methyl-2-oxoimidazolin-1-yl)piperidin-1-yl)-1,2,4-triazin-6-carboxamide]"
4,< 1 nM,"CN1CCN(C2CCCN(c3nnc(C(N)=O)c(Nc4ccc(C5CCN(CC6CCN(c7ccc8c(c7)C(=O)N(C7CCC(=O)NC7=O)C8)CC6)CC5)cc4)n3)C2)C1=O (stereo not shown) [Compound 086, 5-((4-(1-((1-(2-(2,6-dioxopiperidin-3-yl)-3-oxoisoindol-5-yl)piperidin-4-yl)methyl)piperidin-4-yl)phenyl)amino)-3-(3-(3-methyl-2-oxoimidazolin-1-yl)piperidin-1-yl)-1,2,4-triazin-6-carboxamide]"
5,< 1 nM,"CN1CCN(C2CCCN(c3nnc(C(N)=O)c(Nc4ccc(C5CCN(CC6CCN(c7ccc8c(c7)CN(C7CCC(=O)NC7=O)C8=O)CC6)CC5)cc4)n3)C2)C1=O (stereo not shown) [Compound 087, 5-((4-(1-((1-(2-(2,6-dioxopiperidin-3-yl)-1-oxoisooctyl-5-yl)piperidin-4-yl)methyl)piperidin-4-yl)phenyl)amino)-3-(3-(3-methyl-2-oxyimidazolin-1-yl)piperidin-1-yl)-1,2,4-triazin-6-carboxamide]"
6,< 1 nM,"CN1CCN(C2CCCN(c3nnc(C(N)=O)c(Nc4ccc(C5CCN(CC6CCN(c7ccc8c(c7)n(C)c(=O)n8C7CCC(=O)NC7=O)CC6)CC5)cc4)n3)C2)C1=O (stereo not shown) [Compound 088, 5-((4-(1-((1-(1-(2,6-dioxopiperidin-3-yl)-3-methyl-2-oxo-2,3-dihydro-1H-benzo[d]imidazol-5-yl)piperidin-4-yl)methyl)piperidin-4-yl)phenyl)amino)-3-(3-(3-methyl-2-oxoimidazolin-1-yl)piperidin-1-yl)-1,2,4-triazin-6-carboxamide]"
7,< 1 nM,"NC(=O)c1nnc(N2CCCC(N3CCN(c4ccccc4)C3=O)C2)nc1Nc1ccc(C2CCN(CC3CCN(c4ccc5c(c4)C(=O)N(C4CCC(=O)NC4=O)C5=O)C3)CC2)cc1 (stereo not shown) [Compound 089, 5-((4-(1-((1-(2-(2,6-dioxopiperidin-3-yl)-1,3-dioxoisoindol-5-yl)pyrrolidin-3-yl)methyl)piperidin-4-yl)phenyl)amino)-3-(3-(2-oxo-3-phenylimidazolin-1-yl)piperidin-1-yl)-1,2,4-triazin-6-carboxamide]"
8,< 1 nM,"NC(=O)c1nnc(N2CCCC(N3CCN(c4ccccc4)C3=O)C2)nc1Nc1ccc(C2CCN(C3CN(c4ccc5c(c4)C(=O)N(C4CCC(=O)NC4=O)C5=O)C3)CC2)cc1 (stereo not shown) [Compound 090, 5-((4-(1-(1-(2-(2,6-dioxopiperidin-3-yl)-1,3-dioxoisoindol-5-yl)azetidin-3-yl)piperidin-4-yl)phenyl)amino)-3-(3-(2-oxo-3-phenylimidazolin-1-yl)piperidin-1-yl)-1,2,4-triazin-6-carboxamide]"
9,< 1 nM,"NC(=O)c1nnc(N2CCCC(N3CCN(c4ccccc4)C3=O)C2)nc1Nc1ccc2c(c1)CCN(CC1CCN(c3ccc4c(c3)C(=O)N(C3CCC(=O)NC3=O)C4=O)CC1)C2 (stereo not shown) [Compound 094, 5-((2-((1-(2-(2,6-dioxopiperidin-3-yl)-1,3-dioxoisoindol-5-yl)piperidin-4-yl)methyl)-1,2,3,4-tetrahydroisoquinolin-6-yl)amino)-3-(3-(2-oxo-3-phenylimidazolin-1-yl)piperidin-1-yl)-1,2,4-triazin-6-carboxamide]"
10,< 1 nM,"NC(=O)c1nnc(N2CCCC(N3CCN(c4ccccc4)C3=O)C2)nc1Nc1ccc(N2CCN(CC3CCN(c4ccc5c(c4)C(=O)N(C4CCC(=O)NC4=O)C5=O)CC3)CC2)cc1 (stereo not shown) [Compound 095, 5-((4-(4-((1-(2-(2,6-dioxopiperidin-3-yl)-1,3-dioxoisoindol-5-yl)piperidin-4-yl)methyl)piperazin-1-yl)phenyl)amino)-3-(3-(2-oxo-3-phenylimidazolin-1-yl)piperidin-1-yl)-1,2,4-triazin-6-carboxamide]"
